For one assay, the target named is T1, RORγ-LBD (Homo sapiens, UniProt P51449).
T1 construct: made in house; host or cells: SF9 cells (baculovirus)
T1 sequence (P51449 269-508 limits assumed): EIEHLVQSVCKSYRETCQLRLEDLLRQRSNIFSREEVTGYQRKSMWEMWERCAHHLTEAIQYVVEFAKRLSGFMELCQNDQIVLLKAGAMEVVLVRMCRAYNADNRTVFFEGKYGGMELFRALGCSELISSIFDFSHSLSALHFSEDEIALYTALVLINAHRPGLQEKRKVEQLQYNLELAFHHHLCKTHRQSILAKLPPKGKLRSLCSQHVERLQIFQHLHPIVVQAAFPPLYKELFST
Description: RORγ-Ligand Binding Domain (LBD) TR-FRET Assay.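 On TR-FRET Assay Max Response: 665/615 nm ratio relative to signal without ursolic acid or compound set at 100.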 In kind it is biochemical. The method in brief: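 Lysate from SF9 cells expressing His-RORγ-LBD is diluted to about 3 nM final in 50 mM Tris pH 7.0 assay buffer. A biotin-tagged SRC1 LXXLL peptide goes in at 200 nM final, plus ursolic acid at 2 μM final. Test compounds carry 1% DMSO final; signal read by TR-FRET.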
For orientation: TR-FRET usually uses a lanthanide donor and a delayed reading to cut background.

Another assay has as its target T2, Gal4-RORγ-LBD (Homo sapiens, UniProt P51449).
T2 construct: expressed in transfected cells; host or cells: HEK-293 cells (pcDNA3.1neo plasmid)
T2 sequence (P51449 269-508 limits assumed): T1 sequence (P51449 269-508 limits assumed)
The assay can be described thus: Gal4-RORγ Luciferase Reporter Assay in HEK-293T Cells. In kind it is cell-based. To be noted: HEK-293 cells. The method in brief:
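In transfected HEK-293 cells (Gal4-RORγ-LBD, Gal4-luciferase), test agents with 2 μM ursolic acid were incubated overnight at 37 °C before luminescent detection. Values are relative to the ursolic-acid-free, compound-free signal (100).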

[1] abbreviates: luciferase reporter, with 2 μM ursolic acid.

The structures appear in SMILES notation.

The EC50 is the midpoint of the concentration-response curve. Higher therefore signals weaker potency. For the compound `O=C(O)CC[C@H]1CN(S(=O)(=O)c2cccc(C(F)(F)F)c2)c2cc(-c3c(F)cccc3Cl)ccc2O1` [Compound 2AG, (S)-3-(6-(2-chloro-6-fluoro-phenyl)-4-((3-(trifluoromethyl)-phenyl)sulfonyl)-3,4-dihydro-2H-benzo[b][1,4]oxazin-2-yl)propanoic acid], on RORγ-LBD, the EC50 was less than 0.5 µM and the “TR-FRET Assay Max Response” value is listed as “**** (The symbol “****” indicates a value greater than 200)”. For the same compound, at Gal4-RORγ-LBD (setting [1]), the EC50 is less than 0.5 µM and the “Gal4-RORγ Assay Max Response” value is listed as “*** (The symbol “***” indicates a value in the range of greater than 150 to 200)”.
For the compound `Cc1ccc(F)cc1-c1ccc2c(c1)N(S(=O)(=O)c1cccc(C(F)(F)F)c1)C[C@H](CCC(=O)O)O2` [Compound 2BA, (S)-3-(6-(5-fluoro-2-methylphenyl)-4-((3-(trifluoromethyl)phenyl)sulfonyl)-3,4-dihydro-2H-benzo[b][1,4]oxazin-2-yl)propanoic acid], on RORγ-LBD, the EC50 is less than 0.5 µM and the “TR-FRET Assay Max Response” value was “**** (The symbol “****” indicates a value greater than 200)”. Moreover, at Gal4-RORγ-LBD (setting [1]), the EC50 was less than 0.5 µM and the “Gal4-RORγ Assay Max Response” value is on record as “** (The symbol “**” indicates a value in the range of greater than 90 to 150)”.
Regarding `O=C(NC[C@H]1CN(S(=O)(=O)c2cccc(C(F)(F)F)c2)c2cc(-c3cc(F)ccc3F)ccc2O1)c1cn[nH]c1` [Compound 30AC, (S)-N-((6-(2,5-difluorophenyl)-4-((3-(trifluoromethyl)phenyl)-sulfonyl)-3,4-dihydro-2H-benzo[b][1,4]oxazin-2-yl)methyl)-1H-pyrazole-4-carboxamide], on RORγ-LBD, the EC50 was less than 0.5 µM and the “TR-FRET Assay Max Response” value is listed as “**** (The symbol “****” indicates a value greater than 200)”. In addition, on Gal4-RORγ-LBD (setting [1]), the EC50 lay in the range of 0.5 to 5 µM and the “Gal4-RORγ Assay Max Response” value is “* (The symbol “*” indicates a value in the range of 25 to 90)”.
Take `O=C(O)CC[C@H]1CN(S(=O)(=O)c2cccc(C(F)(F)F)c2)c2cc(-c3cccc(OCCO)c3)ccc2O1` [Compound 4AB, (S)-3-(6-(3-(2-hydroxyethoxy)-phenyl)-4-((3-(trifluoromethyl)phenyl)-sulfonyl)-3,4-dihydro-2H-benzo[b][1,4]oxazin-2-yl)propanoic acid]: the EC50 on RORγ-LBD and at Gal4-RORγ-LBD (setting [1]) was more than 10 µM throughout.
On to `O=C(O)C1(C[C@H]2CN(S(=O)(=O)c3cccc(C(F)(F)F)c3)c3cc(-c4cc(F)ccc4F)ccc3O2)CCC1` [Compound 32BE, (S)-1-((6-(2,5-difluorophenyl)-4-((3-(trifluoromethyl)phenyl)-sulfonyl)-3,4-dihydro-2H-benzo[b][1,4]oxazin-2-yl)methyl)cyclobutane-1-carboxylic acid], for which, on RORγ-LBD, the EC50 is less than 0.5 µM and the “TR-FRET Assay Max Response” value is given as “** (The symbol “**” indicates a value in the range of greater than 90 to 150)”. Moreover, at Gal4-RORγ-LBD (2 μM ursolic acid), the EC50 was less than 0.5 µM and the “Gal4-RORγ Assay Max Response” value was “** (The symbol “**” indicates a value in the range of greater than 90 to 150)”.
`O=C(NC[C@H]1CN(S(=O)(=O)c2cccc(C(F)(F)F)c2)c2cc(-c3cc(F)ccc3F)ccc2O1)C1COC1` [Compound 30Z, (S)-N-((6-(2,5-difluorophenyl)-4-((3-(trifluoromethyl)phenyl)-sulfonyl)-3,4-dihydro-2H-benzo[b][1,4]oxazin-2-yl)methyl)oxetane-3-carboxamide]: at RORγ-LBD, the EC50 is less than 0.5 µM and the “TR-FRET Assay Max Response” value is “**** (The symbol “****” indicates a value greater than 200)”. At Gal4-RORγ-LBD (setting [1]), the concentration giving a half-maximal response (EC50) was less than 0.5 µM and the “Gal4-RORγ Assay Max Response” value is “* (The symbol “*” indicates a value in the range of 25 to 90)”.
For `O=C(O)[C@@]1(C[C@H]2CN(S(=O)(=O)c3cccc(C(F)(F)F)c3)c3cc(-c4cc(F)ccc4F)ccc3O2)CCNC1=O` [Compound 77B, (R)-3-(((S)-6-(2,5-difluorophenyl)-4-((3-(trifluoromethyl)phenyl)-sulfonyl)-3,4-dihydro-2H-benzo[b][1,4]oxazin-2-yl)methyl)-2-oxopyrrolidine-3-carboxylic acid], on RORγ-LBD, the EC50 is less than 0.5 µM and the “TR-FRET Assay Max Response” value was “*** (The symbol “***” indicates a value in the range of greater than 150 to 200)”. Moreover, on Gal4-RORγ-LBD (2 μM ursolic acid), the EC50 was less than 0.5 µM and the “Gal4-RORγ Assay Max Response” value was “** (The symbol “**” indicates a value in the range of greater than 90 to 150)”.
As for `CC(C)(C[C@H]1CN(S(=O)(=O)c2cccc(C(F)(F)F)c2)c2cc(-c3cc(OC(F)F)ccc3F)ccc2O1)C(=O)O` [Compound 32BI, (S)-3-(6-(5-(difluoromethoxy)-2-fluorophenyl)-4-((3-(trifluoromethyl)phenyl)sulfonyl)-3,4-dihydro-2H-benzo[b][1,4]oxazin-2-yl)-2,2-dimethylpropanoic acid], on RORγ-LBD, the EC50 was less than 0.5 µM and the “TR-FRET Assay Max Response” value is “*** (The symbol “***” indicates a value in the range of greater than 150 to 200)”. Further, on Gal4-RORγ-LBD (2 μM ursolic acid), the EC50 is less than 0.5 µM and the “Gal4-RORγ Assay Max Response” value is on record as “** (The symbol “**” indicates a value in the range of greater than 90 to 150)”.
For the compound `O=S(=O)(c1cccc(C(F)(F)F)c1)N1C[C@H](CC2(CO)COC2)Oc2ccc(-c3cc(F)cc(F)c3Cl)cc21` [Compound 51A, (S)-(3-((6-(2-chloro-3,5-difluoro-phenyl)-4-((3-(trifluoromethyl)-phenyl)sulfonyl)-3,4-dihydro-2H-benzo[b][1,4]oxazin-2-yl)methyl)oxetan-3-yl)methanol], on RORγ-LBD, the EC50 is less than 0.5 µM and the “TR-FRET Assay Max Response” value is given as “** (The symbol “**” indicates a value in the range of greater than 90 to 150)”. Moreover, on Gal4-RORγ-LBD (2 μM ursolic acid), the 50% effective concentration (EC50) is less than 0.5 µM and the “Gal4-RORγ Assay Max Response” value was “** (The symbol “**” indicates a value in the range of greater than 90 to 150)”.
Consider `O=S(=O)(c1cccc(C(F)(F)F)c1)N1C[C@H](CCCO)Oc2ccc(-c3ccc(F)cc3F)cc21` [Compound 34A, (S)-3-(6-(2,4-difluorophenyl)-4-((3-(trifluoromethyl)phenyl)-sulfonyl)-3,4-dihydro-2H-benzo[b][1,4]oxazin-2-yl)propan-1-ol], for which, at RORγ-LBD, the EC50 is less than 0.5 µM and the “TR-FRET Assay Max Response” value is given as “**** (The symbol “****” indicates a value greater than 200)”. Further, at Gal4-RORγ-LBD (setting [1]), the 50% effective concentration (EC50) is less than 0.5 µM and the “Gal4-RORγ Assay Max Response” value is given as “* (The symbol “*” indicates a value in the range of 25 to 90)”.
As to `CO[C@@H](C)C(=O)NC[C@H]1CN(S(=O)(=O)c2cccc(C(F)(F)F)c2)c2cc(-c3cccc(F)c3Cl)ccc2O1` [Compound 30CI, (S)-N-(((S)-6-(2-chloro-3-fluorophenyl)-4-((3-(trifluoro-methyl)phenyl)sulfonyl)-3,4-dihydro-2H-benzo[b][1,4]-oxazin-2-yl)methyl)-2-methoxypropanamide], at RORγ-LBD, the EC50 is less than 0.5 µM and the “TR-FRET Assay Max Response” value was “*** (The symbol “***” indicates a value in the range of greater than 150 to 200)”. Also, at Gal4-RORγ-LBD (2 μM ursolic acid), the EC50 was in the range of 0.5 to 5 µM and the “Gal4-RORγ Assay Max Response” value is on record as “* (The symbol “*” indicates a value in the range of 25 to 90)”.
For `CC(F)(F)C(=O)NC[C@H]1CN(S(=O)(=O)c2cccc(C(F)(F)F)c2)c2cc(-c3cccc(F)c3Cl)ccc2O1` [Compound 30CE, (S)-N-((6-(2-chloro-3-fluoro-phenyl)-4-((3-(trifluoromethyl)-phenyl)sulfonyl)-3,4-dihydro-2H-benzo[b][1,4]oxazin-2-yl)methyl)-2,2-difluoro-propanamide], in that order: less than 0.5 µM, “*** (The symbol “***” indicates a value in the range of greater than 150 to 200)”, less than 0.5 µM and “* (The symbol “*” indicates a value in the range of 25 to 90)”.
With `O=C(O)[C@]1(C[C@H]2CN(S(=O)(=O)c3cccc(C(F)(F)F)c3)c3cc(-c4cc(F)ccc4F)ccc3O2)CCNC1=O` [Compound 77A, (S)-3-(((S)-6-(2,5-difluorophenyl)-4-((3-(trifluoromethyl)phenyl)-sulfonyl)-3,4-dihydro-2H-benzo[b][1,4]oxazin-2-yl)methyl) 2-oxopyrrolidine-3-carboxylic acid], on RORγ-LBD, the EC50 was less than 0.5 µM and the “TR-FRET Assay Max Response” value was “** (The symbol “**” indicates a value in the range of greater than 90 to 150)”. For the same compound, the “Gal4-RORγ Assay Max Response” value at Gal4-RORγ-LBD (2 μM ursolic acid) is given as “**** (The symbol “****” indicates a value greater than 200)”.
With `CC(C)c1cccc(-c2ccc3c(c2)N(S(=O)(=O)c2cccc(C(F)(F)F)c2)C[C@H](CCC(=O)O)O3)c1` [Compound 2Y, (S)-3-(6-(3-isopropylphenyl)-4-((3-(trifluoromethyl)phenyl)-sulfonyl)-3,4-dihydro-2H-benzo[b][1,4]oxazin-2-yl)propanoic acid], on RORγ-LBD, the EC50 is less than 0.5 µM and the “TR-FRET Assay Max Response” value was “*** (The symbol “***” indicates a value in the range of greater than 150 to 200)”. At Gal4-RORγ-LBD (setting [1]), the EC50 was less than 0.5 µM and the “Gal4-RORγ Assay Max Response” value is given as “** (The symbol “**” indicates a value in the range of greater than 90 to 150)”.

(Values after US10611740B2, “Aryl dihydro-2H-benzo[b][1,4]oxazine sulfonamide and related compounds for use as agonists of RORγ and the treatment of disease” (Lycera Corporation, priority 2015, dated 2020).)
